EPA's ToxValDB 9.5 (doi:10.2903/j.efsa.2018.5429)
≈ marks a conversion by molar mass, not a printed value.

Key:
Aphidius rhopalosiphi = assay: LR50; higher = less toxic; settings: not reported; mortality
Coturnix japonica = settings: acute; oral; mortality
Oncorhynchus mykiss = settings: chronic/long-term; duration: 56 days; behavior
Lepomis macrochirus = settings: acute; duration: 96 hours; mortality
Apis mellifera = settings: acute, duration: 48 hours, mortality
Tagia sp. = settings: chronic/long-term; duration: 56 days; body weight
Anas platyrhynchos = settings: reproductive
Rattus norvegicus = settings: for NOAEL: reproduction developmental
Hypoaspis aculeifer = settings: acute; duration: 14 days
Daphnia magna = settings: chronic/long-term; duration: 21 days; reproduction
Canidae = settings: subchronic; duration: 90 days; oral; Dog Other; clinical signs

SMILES: CNC(=O)Oc1cc(C)c(SC)c(C)c1 [Methiocarb]
- LR50 (Aphidius rhopalosiphi): 8.5 g/ha
- LD50 (Coturnix japonica): 5 mg/kg-day
- NOEC (Oncorhynchus mykiss): 0.05 mg/L
- LC50 (Lepomis macrochirus): 0.65 µg/mL (≈ 2.88 µM)
- LD50 (Apis mellifera; dermal): 0.23 µg/piece
- LD50 (Apis mellifera; oral, unspecified): 0.08 µg/piece
- NOEC (Tagia sp.): 0.08 mg/kg
- NOAEL (Anas platyrhynchos): 4.51 mg/kg-day
- LD50 (Rattus norvegicus; acute, oral, mortality): < 50 mg/kg-day
- NOAEL (Rattus norvegicus; body weight): 4.3 mg/kg-day
- NOAEL (Rattus norvegicus; clinical signs): 0.5 mg/kg-day
- NOEC (Hypoaspis aculeifer): 10.1 mg/kg
- NOEC (Daphnia magna): 0.0001 mg/L
- NOAEL (Canidae): 0.25 mg/kg-day
